In this assay the test system is cells. Briefly: in vitro studies of collagen and glycosaminoglycan synthesis by cells. It counts as cell-based.

Where no end group is shown, it is not given here. The star is where a group is joined. Palmitoyl = CCCCCCCCCCCCCCCC(=O)*

“palmitoyl-Lys-Thr-Thr-Lys-Ser (Palmitoyl-KTTKS) [lipopeptide]”: the “synthesis of collagen and glycosaminoglycans by cells” value was “induces cells to synthesize collagen and glycosaminoglycans”.

For the origin of these results see patent publication US20040234476A1, “Cosmetic preparation with anti-wrinkle action” (priority 2001, published 2004).
